Measurements published in the supplement of paper PMC11003180.

Key:
Test in all cases: drug sensitivity score (DSS) from 5-dose viability curve (DSS (area-based score, 0 = no response)); higher = more sensitive (stronger viability inhibition); extreme values may be limits of the assay
[1] = system: MDCK p60AmotL2-inducible + doxycycline (p60AmotL2 expressing); settings: doxycycline: 10 ng/mL; 72 h
In short: (§1)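 Parental MDCK cells and MDCK cells with a doxycycline-inducible transgene were both grown with doxycycline at 10 ng/mL in the medium before plating, then dispensed at 2000 cells/well into 384-well plates pre-spotted with an oncology library of 528 drugs at five doses (1-10,000 nM). After 72 h at 37 °C, CellTiter-Glo luminescence was recorded and scaled on each plate between vehicle and positive controls. This scaled signal served as the viability readout, and drug sensitivity scores were derived from dose-response curve fits in the Breeze pipeline.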

[2] = system: MDCK wild-type + doxycycline; settings: doxycycline: 10 ng/mL; 72 h
In short: as §1

[3] = system: MDCK wild-type - doxycycline; settings: doxycycline: none; 72 h
In short: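 Viability of parental MDCK cells cultured without doxycycline was measured by CellTiter-Glo luminescence and scaled per plate between vehicle and positive controls. The cells had been exposed for 72 h to an oncology library of 528 drugs at five doses (1-10,000 nM). Drug sensitivity scores were calculated from dose-response curve fits in the Breeze pipeline.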

Row | SMILES | drug sensitivity score [1] | drug sensitivity score [2] | drug sensitivity score [3]
1 | CNC(=O)c1cc(Oc2ccc(NC(=O)Nc3ccc(Cl)c(C(F)(F)F)c3)c(F)c2)ccn1 [Regorafenib] | 5.6 | 3.2 | 3.2
2 | COCCOc1cnc2ccn([C@H](C)c3nnc4c(F)cc(-c5cnn(C)c5)cn34)c(=O)c2c1 [AMG-337] | 0 | 0 | 0
3 | CC1(C)CCC(CN2CCN(c3ccc(C(=O)NS(=O)(=O)c4ccc(NCC5CCOCC5)c([N+](=O)[O-])c4)c(Oc4cnc5[nH]ccc5c4)c3)CC2)=C(c2ccc(Cl)cc2)C1 [Venetoclax] | 0 | 0 | 0
4 | CC(C)[C@H]1C(=O)N[C@@H](CCCNC(=N)N)C(=O)NCC(=O)N[C@@H](CC(=O)O)C(=O)N[C@H](Cc2ccccc2)C(=O)N1C [Cilengitide] | 3.8 | 0 | 0.2
5 | N#Cc1ccc(COC[C@H]2O[C@@H](n3c(NCc4ccc(Cl)c(Cl)c4)nc4c(N)ncnc43)[C@H](O)[C@@H]2O)cc1 | 0 | 0 | 0
6 | COc1cc2c(Nc3ccc(Cl)c(Cl)c3F)ncnc2cc1OC[C@@H]1C[C@@H]2CN(C)C[C@@H]2C1 [Tesevatinib] | 18.9 | 8.5 | 5.8
7 | CNC(=O)c1ccc(N2C(=S)N(c3cnc(C#N)c(C(F)(F)F)c3)C(=O)C23CCC3)cc1F [Apalutamide] | 0 | 0 | 0
8 | CN[C@@H](C)C(=O)N[C@H]1CN(C(=O)CC(C)C)CC[C@H]2CC[C@@H](C(=O)NC(c3ccccc3)c3ccccc3)N2C1=O [AT-406] | 0 | 0.1 | 0
9 | CNC(=O)c1cc(Oc2ccc(NC(=O)Nc3ccc(Cl)c(C(F)(F)F)c3)cc2)ccn1 [Sorafenib] | 0 | 0 | 0
10 | O=c1ncn2nc(Sc3ccc(F)cc3F)ccc2c1-c1c(Cl)cccc1Cl [Neflamapimod] | 0 | 0 | 0
11 | COc1cc(Nc2ncc(F)c(Nc3ccc4c(n3)NC(=O)C(C)(C)O4)n2)cc(OC)c1OC [Tamatinib] | 1.6 | 0 | 0
12 | O=C1CN2Cc3c(ccc(Cl)c3Cl)N=C2N1 [Anagrelide] | 0 | 0 | 0
13 | Cc1cn(-c2cc(NC(=O)c3ccc(C)c(Nc4nccc(-c5cccnc5)n4)c3)cc(C(F)(F)F)c2)cn1 [Nilotinib] | 0 | 0 | 0
14 | CCc1nc(C(N)=O)c(Nc2ccc(N3CCC(N4CCN(C)CC4)CC3)c(OC)c2)nc1NC1CCOCC1 [Gilteritinib] | 1 | 0.1 | 0.9
15 | O=C(NC1CCNCC1)c1n[nH]cc1NC(=O)c1c(Cl)cccc1Cl [AT7519] | 9.1 | 8.9 | 8.2
16 | COc1cc2ncnc(Nc3cccc(Cl)c3F)c2cc1OC(=O)N1CCN(C)C[C@H]1C [AZD3759] | 6.6 | 0 | 0
17 | C[C@]12C=CC(=O)C=C1CC[C@@H]1[C@@H]2[C@@H](O)C[C@@]2(C)[C@H]1CC[C@]2(O)C(=O)CO [Prednisolone] | 0 | 0 | 1.2
18 | Cc1cc(F)c(C(=O)Nc2cccc(-c3nncn3C(C)C)n2)cc1-n1cnc(C2CC2)c1 [Selonsertib] | 0 | 0 | 0
19 | FC(F)(F)c1ccc(/C=C/c2nc(COc3ccc(CCCCn4ccnn4)cc3)co2)cc1 [Mubritinib] | 0 | 0 | 0
20 | CN1CCN(C2CCC(n3cc(-c4ccc(Oc5ccccc5)cc4)c4c(N)ncnc43)CC2)CC1 (centres undefined) | 14 | 9.4 | 7
21 | Cn1c(=O)n(-c2ccc(C(C)(C)C#N)cc2)c2c3cc(-c4cnc5ccccc5c4)ccc3ncc21 [Dactolisib] | 17.7 | 10.9 | 9.2
22 | C[C@H]1C[C@@H]2[C@H]([C@@H](O)C[C@@]3(C)[C@H]2CC[C@]3(O)C(=O)CO)[C@@]2(C)C=CC(=O)C=C12 [Methylprednisolone] | 0 | 0 | 0

Row | SMILES | drug sensitivity score [1] | drug sensitivity score [2] | drug sensitivity score [3]
23 | CO[C@H]1C[C@@H]2CC[C@@H](C)[C@@](O)(O2)C(=O)C(=O)N2CCCC[C@H]2C(=O)O[C@H]([C@H](C)C[C@@H]2CC[C@@H](OCCO)[C@H](OC)C2)CC(=O)[C@H](C)/C=C(\C)[C@@H](O)[C@@H](OC)C(=O)[C@H](C)C[C@H](C)/C=C/C=C/C=C/1C [Everolimus] | 8 | 2.1 | 2.1
24 | C=CC(=O)Nc1cc2c(Nc3ccc(F)c(Cl)c3)ncnc2cc1OCCCN1CCOCC1 [Canertinib] | 15.2 | 9.6 | 7.9
25 | C[C@@H]1C=C2C(=O)O[C@@H]3CC[C@H](C1)[C@]23O [Galiellalactone] | 2.5 | 2 | 4.3
26 | N#CC1(c2ccc(NC(=O)c3cccnc3NCc3ccncc3)cc2)CCCC1 [Apatinib] | 0 | 2.7 | 0
27 | C[C@H](Nc1ncnc2[nH]cnc12)c1cc2ccc(F)cc2nc1-c1ccccn1 [AMG319] | 0 | 0 | 0
28 | CC(C)(C)c1cnc(CSc2cnc(NC(=O)C3CCNCC3)s2)o1 [SNS-032] | 19.1 | 17.8 | 16.3
29 | COc1cc(Nc2c(C#N)cnc3cc(OCCCN4CCN(C)CC4)c(OC)cc23)c(Cl)cc1Cl [Bosutinib] | 14.1 | 10.4 | 7.5
30 | CN(C)C/C=C/C(=O)Nc1cc2c(Nc3ccc(F)c(Cl)c3)ncnc2cc1O[C@H]1CCOC1 [Afatinib] | 18.3 | 3.5 | 4.2
31 | Oc1ccc2c(c1)CC[C@H](c1ccccc1)[C@@H]2c1ccc(OCCN2CCCC2)cc1 [Lasofoxifene] | 0 | 0 | 0
32 | CO[C@@H](C(=O)N1Cc2[nH]nc(NC(=O)c3ccc(N4CCN(C)CC4)cc3)c2C1)c1ccccc1 [Danusertib] | 8.4 | 5.6 | 4.4
33 | CNc1ncc2cc(-c3cc(NC(=O)NCCC(C)(C)C)c(F)cc3C)c(C)nc2n1 | 9 | 5.2 | 2.8
34 | NC1(c2ccc(-c3nc4ccn5c(=O)[nH]nc5c4cc3-c3ccccc3)cc2)CCC1 [MK-2206] | 0 | 0 | 0
35 | C[C@@H](Oc1cc(-c2cnn(C3CCNCC3)c2)cnc1N)c1c(Cl)ccc(F)c1Cl [Crizotinib] | 0 | 0 | 0
36 | CCN(CC)CCCC(C)Nc1ccnc2cc(Cl)ccc12 (centres undefined) [Chloroquine] | 5.2 | 4.5 | 5.1
37 | Cc1ncc(Cl)cc1NCc1ccc(C(=O)N[C@@H](CC2CCCC2)C(=O)NC2CC2)s1 | 0 | 0 | 0
38 | CO[C@H]1C[C@@H]2CC[C@@H](C)[C@@](O)(O2)C(=O)C(=O)N2CCCC[C@H]2C(=O)O[C@H]([C@H](C)C[C@@H]2CC[C@@H](OC(=O)C(C)(CO)CO)[C@H](OC)C2)CC(=O)[C@H](C)/C=C(\C)[C@@H](O)[C@@H](OC)C(=O)[C@H](C)C[C@H](C)/C=C/C=C/C=C/1C [Temsirolimus] | 10 | 2.3 | 0
39 | CC(C)(C)c1nc(-c2cccc(NS(=O)(=O)c3c(F)cccc3F)c2F)c(-c2ccnc(N)n2)s1 [Dabrafenib] | 0 | 0 | 0
40 | C=CC[C@@H]1/C=C(\C)C[C@H](C)C[C@H](OC)[C@H]2O[C@@](O)(C(=O)C(=O)N3CCCC[C@H]3C(=O)O[C@H](/C(C)=C/[C@@H]3CC[C@@H](O)[C@H](OC)C3)[C@H](C)[C@@H](O)CC1=O)[C@H](C)C[C@@H]2OC [Tacrolimus] | 0 | 0 | 0
41 | Cn1cnc2c(F)c(Nc3ccc(Br)cc3Cl)c(C(=O)NOCCO)cc21 [Selumetinib] | 10.1 | 4.1 | 0.9
42 | C[C@]1(c2nc3c(C(N)=O)cccc3[nH]2)CCCN1 [Veliparib] | 0 | 0 | 0
43 | COc1ccc(Cn2ccc3ccc(C(=O)NO)cc32)cc1 | 2.1 | 3.1 | 0
